Holding throughout (assay): MIC, agar dilution
What all share (format): cell-based
For orientation: In agar dilution the substance is mixed into plates at graded concentrations.

In one assay the test system is E. faecalis ATCC 29212. The note with it: E. faecalis ATCC 29212.
In another assay the test system is E. coli UBMS 88-1 (tetB). To be noted: E. coli UBMS 88-1 (tetB).
Assay [1] has as its system S. haemolyticus AVAH 88-3. To be noted: S. haemolyticus AVAH 88-3.
The subject of assay [2] is S. aureus UBMS 88-5 (tetM). The note with it: S. aureus UBMS 88-5 (tetM).
Assay [3] deals with S. aureus UBMS 90-3 (Sensitive). To be noted: S. aureus UBMS 90-3 (Sensitive).
A further assay relates to E. faecalis 12201. The note with it: E. faecalis 12201.
Assay [4] relates to S. aureus IVES 2943 (meth. resistant). To be noted: S. aureus IVES 2943 (meth. resistant).
Assay [5] has as its system S. aureus Smith (Sensitive). The note with it: S. aureus Smith (Sensitive).
For assay [6], the system named is S. aureus ATCC 29213 (Sensitive). The note with it: S. aureus ATCC 29213 (Sensitive).
In assay [7] the test system is E. coli UBMS 88-2 (Sensitive). To be noted: E. coli UBMS 88-2 (Sensitive).
For assay [8], the system named is S. aureus UBMS 90-1 (tetM). The note with it: S. aureus UBMS 90-1 (tetM).
A further assay concerns E. coli ATCC 25922. To be noted: E. coli ATCC 25922.
The subject of assay [9] is E. coli UBMS 89-2 (Sensitive). The note with it: E. coli UBMS 89-2 (Sensitive).
The test system of assay [10] is S. aureus IVES 1983 (meth. resistant). The note with it: S. aureus IVES 1983 (meth. resistant).
The subject of assay [11] is S. aureus UBMS 90-2 (tetM). To be noted: S. aureus UBMS 90-2 (tetM).
Assay [12] has as its system S. aureus UBMS 88-4 (Sensitive). To be noted: S. aureus UBMS 88-4 (Sensitive).
For assay [13], the system named is S. aureus UBMS 88-7 (tetK). The note with it: S. aureus UBMS 88-7 (tetK).
For a further assay, the system named is E. coli UBMS 89-1 (tetM). To be noted: E. coli UBMS 89-1 (tetM).

Values after ≈ are worked out from the molar mass of the structure shown.

For orientation: MIC means the least concentration at which growth counts as inhibited. As to `Cc1ccccc1C(=O)Nc1cc(N(C)C)c2c(c1O)C(=O)C1=C(O)C3(O)C(=O)C(C(N)=O)=C(O)C(N(C)C)C3CC1C2` (centres unmarked) [R, 7-(Dimethylamino)-9-((2-methylbenzoyl)amino]-6-demethyl-6-deoxytetracycline], the minimum inhibitory concentration (MIC) in the assay on E. faecalis ATCC 29212 is 2 µg/mL (≈ 3.39 µM); in the assay with E. coli UBMS 88-1 (tetB), 2 µg/mL (≈ 3.39 µM); in [1] it was 8 µg/mL (≈ 13.5 µM); in assay [2] it was 4 µg/mL (≈ 6.77 µM); in assay [3] it was 1 µg/mL (≈ 1.69 µM); in the assay with E. faecalis 12201, 8 µg/mL (≈ 13.5 µM). Also, the minimum inhibitory concentration (MIC) in assay [4] was 4 µg/mL (≈ 6.77 µM); in [5], 1 µg/mL (≈ 1.69 µM); in assay [6], 0.12 µg/mL (≈ 0.203 µM); in assay [7], greater than 32 µg/mL; in [8] it was 8 µg/mL (≈ 13.5 µM); against E. coli ATCC 25922, greater than 32 µg/mL. Moreover, the MIC in assay [9] is greater than 32 µg/mL; in [10], 8 µg/mL (≈ 13.5 µM); in assay [11] it was 2 µg/mL (≈ 3.39 µM); in assay [12] it was 2 µg/mL (≈ 3.39 µM); in assay [13], 4 µg/mL (≈ 6.77 µM).

Consider `COc1ccc(C(=O)Nc2cc(N(C)C)c3c(c2O)C(=O)C2=C(O)C4(O)C(=O)C(C(N)=O)=C(O)C(N(C)C)C4CC2C3)cc1` (centres unmarked) [Q, 7-(Dimethylamino)-9-[(4-methoxybenzoyl)amino)-6-demethyl-6-deoxytetracycline], for which the MIC was 8 µg/mL (≈ 13.2 µM) against E. faecalis ATCC 29212; greater than 32 µg/mL with E. coli UBMS 88-1 (tetB); 8 µg/mL (≈ 13.2 µM) in assay [1]; 8 µg/mL (≈ 13.2 µM) in assay [2]; 4 µg/mL (≈ 6.59 µM) in assay [3]; 8 µg/mL (≈ 13.2 µM) in the assay on E. faecalis 12201. Besides, the MIC in assay [4] was 8 µg/mL (≈ 13.2 µM); in assay [5] it was 4 µg/mL (≈ 6.59 µM); in [6], 1 µg/mL (≈ 1.65 µM); in [7], greater than 32 µg/mL; in assay [8], 8 µg/mL (≈ 13.2 µM); with E. coli ATCC 25922, greater than 32 µg/mL. Moreover, the MIC was greater than 32 µg/mL in [9]; 16 µg/mL (≈ 26.4 µM) in [10]; 8 µg/mL (≈ 13.2 µM) in [11]; 8 µg/mL (≈ 13.2 µM) in assay [12]; 16 µg/mL (≈ 26.4 µM) in assay [13].

Turning to `CN(C)c1cc(NC(=O)c2c(F)c(F)c(F)c(F)c2F)c(O)c2c1CC1CC3C(N(C)C)C(O)=C(C(N)=O)C(=O)C3(O)C(O)=C1C2=O` (centres unmarked) [T, 7-(Dimethylamino)-9-((pentafluorobenzoyl)amino]-6-demethyl-6-deoxytetracycline], the minimal inhibitory concentration (MIC) was 4 µg/mL (≈ 6 µM) in the assay with E. faecalis ATCC 29212; greater than 32 µg/mL in the assay on E. coli UBMS 88-1 (tetB); 4 µg/mL (≈ 6 µM) in [1]; 4 µg/mL (≈ 6 µM) in [2]; 2 µg/mL (≈ 3 µM) in assay [3]; 4 µg/mL (≈ 6 µM) against E. faecalis 12201. Also, the MIC in [4] is 4 µg/mL (≈ 6 µM); in assay [5], 4 µg/mL (≈ 6 µM); in assay [6], 1 µg/mL (≈ 1.5 µM); in assay [7] it was greater than 32 µg/mL; in assay [8], 4 µg/mL (≈ 6 µM); against E. coli ATCC 25922 it was greater than 32 µg/mL. In addition, the MIC in assay [9] is greater than 32 µg/mL; in assay [10], 4 µg/mL (≈ 6 µM); in assay [11] it was 2 µg/mL (≈ 3 µM); in assay [12], 4 µg/mL (≈ 6 µM); in assay [13], 4 µg/mL (≈ 6 µM).

Consider `CN(C)c1cc(NC(=O)c2ccccc2)c(O)c2c1CC1CC3C(N(C)C)C(O)=C(C(N)=O)C(=O)C3(O)C(O)=C1C2=O` (centres unmarked) [P, 9-(Benzoylamino)-7-(dimethylamino)-6-demethyl-6-deoxytetracycline], for which the MIC was 4 µg/mL (≈ 6.94 µM) with E. faecalis ATCC 29212; greater than 32 µg/mL in the assay with E. coli UBMS 88-1 (tetB); 4 µg/mL (≈ 6.94 µM) in [1]; 4 µg/mL (≈ 6.94 µM) in [2]; 1 µg/mL (≈ 1.73 µM) in assay [3]; 8 µg/mL (≈ 13.9 µM) in the assay on E. faecalis 12201. Further, the minimal inhibitory concentration (MIC) in assay [4] was 16 µg/mL (≈ 27.7 µM); in assay [5], 1 µg/mL (≈ 1.73 µM); in assay [6] it was 0.25 µg/mL (≈ 0.434 µM); in [7] it was greater than 32 µg/mL; in [8], 4 µg/mL (≈ 6.94 µM); against E. coli ATCC 25922, greater than 32 µg/mL. Moreover, the MIC in [9] is greater than 32 µg/mL; in [10] it was 8 µg/mL (≈ 13.9 µM); in assay [11], 4 µg/mL (≈ 6.94 µM); in assay [12], 4 µg/mL (≈ 6.94 µM); in assay [13], 8 µg/mL (≈ 13.9 µM).

`CC(=O)Nc1nc(C)c(S(=O)(=O)Nc2cc(N(C)C)c3c(c2O)C(=O)C2=C(O)C4(O)C(=O)C(C(N)=O)=C(O)C(N(C)C)C4CC2C3)s1` (centres unmarked) [GG, 9-[[[(2-Acetylamino)-4-methyl-5-thiazolyl]sulfonyl]amino]-7-(dimethylamino)-6-demethyl-6-deoxytetracycline]: the MIC in the assay on E. faecalis ATCC 29212 is 1 µg/mL (≈ 1.45 µM); against E. coli UBMS 88-1 (tetB), greater than 32 µg/mL; in the assay on E. coli UBMS 89-1 (tetM), 32 µg/mL (≈ 46.3 µM); in [2] it was 16 µg/mL (≈ 23.2 µM); in assay [3], 2 µg/mL (≈ 2.9 µM); in assay [4], greater than 32 µg/mL. In addition, the MIC is 2 µg/mL (≈ 2.9 µM) in assay [5]; 0.5 µg/mL (≈ 0.724 µM) in assay [6]; greater than 32 µg/mL in assay [7]; 32 µg/mL (≈ 46.3 µM) in assay [8]; greater than 32 µg/mL against E. coli ATCC 25922; greater than 32 µg/mL in assay [9]. Also, the minimal inhibitory concentration (MIC) was found to be 32 µg/mL (≈ 46.3 µM) in [10], 4 µg/mL (≈ 5.79 µM) in assay [11], 4 µg/mL (≈ 5.79 µM) in assay [12] and 32 µg/mL (≈ 46.3 µM) in assay [13].

`CN(C)c1cc(NC(=O)c2ccccc2F)c(O)c2c1CC1CC3C(N(C)C)C(O)=C(C(N)=O)C(=O)C3(O)C(O)=C1C2=O` (centres unmarked) [S, 7-(Dimethylamino)-9-[(2-fluorobenzoyl)amino]-6-demethyl-6-deoxytetracycline]: the MIC was 4 µg/mL (≈ 6.73 µM) in the assay with E. faecalis ATCC 29212; greater than 32 µg/mL against E. coli UBMS 88-1 (tetB); 4 µg/mL (≈ 6.73 µM) in assay [1]; 2 µg/mL (≈ 3.36 µM) in assay [2]; 1 µg/mL (≈ 1.68 µM) in assay [3]; 4 µg/mL (≈ 6.73 µM) against E. faecalis 12201. Further, the minimum inhibitory concentration (MIC) in assay [4] was 8 µg/mL (≈ 13.5 µM); in [5], 1 µg/mL (≈ 1.68 µM); in assay [6], 0.5 µg/mL (≈ 0.841 µM); in [7] it was greater than 32 µg/mL; in assay [8], 4 µg/mL (≈ 6.73 µM); against E. coli ATCC 25922, greater than 32 µg/mL. The minimum inhibitory concentration (MIC) was greater than 32 µg/mL in assay [9]; 4 µg/mL (≈ 6.73 µM) in assay [10]; 1 µg/mL (≈ 1.68 µM) in assay [11]; 2 µg/mL (≈ 3.36 µM) in [12]; 8 µg/mL (≈ 13.5 µM) in assay [13].

On to `CCN(CC)c1cc(NC=O)c(O)c2c1C[C@H]1C[C@H]3[C@H](N(C)C)C(O)=C(C(N)=O)C(=O)[C@@]3(O)C(O)=C1C2=O.O=S(=O)(O)O.O=S(=O)(O)O` [D, 7-(Diethylamino)-9-(formylamino)-6-demethyl-6-deoxytetracycline disulfate], for which the MIC in the assay on E. faecalis ATCC 29212 is 0.12 µg/mL; in the assay on E. coli UBMS 88-1 (tetB), greater than 32 µg/mL; in [2], 0.25 µg/mL; in [3], 0.06 µg/mL; against E. faecalis 12201, 1 µg/mL; in assay [4], 4 µg/mL. For the same compound, the minimum inhibitory concentration (MIC) is 0.03 µg/mL in assay [5]; “≦0.015 μg/ml” in assay [6]; 0.5 µg/mL in [7]; 0.5 µg/mL in [8]; 0.5 µg/mL in the assay with E. coli ATCC 25922; 0.5 µg/mL in assay [9]. Also, the MIC stood at 4 µg/mL in assay [10], 0.12 µg/mL in [11], 0.12 µg/mL in assay [12] and 2 µg/mL in assay [13].

`CN(C)c1cc(NS(=O)(=O)c2ccc([N+](=O)[O-])cc2)c(O)c2c1CC1CC3C(N(C)C)C(O)=C(C(N)=O)C(=O)C3(O)C(O)=C1C2=O` (centres unmarked) [AA, 7-(Dimethylamino)-9-[[(4-nitrophenyl)sulfonyl]amino]-6-demethyl-6-deoxytetracycline]: the MIC with E. faecalis ATCC 29212 stood at 0.12 µg/mL (≈ 0.182 µM); in the assay on E. coli UBMS 88-1 (tetB), 16 µg/mL (≈ 24.3 µM); in assay [1], 2 µg/mL (≈ 3.04 µM); in the assay with E. coli UBMS 89-1 (tetM) it was 4 µg/mL (≈ 6.08 µM); in assay [2] it was 0.12 µg/mL (≈ 0.182 µM); in [3], 0.06 µg/mL (≈ 0.0912 µM). Further, the minimum inhibitory concentration (MIC) in [4] came to 4 µg/mL (≈ 6.08 µM); in assay [5], 0.12 µg/mL (≈ 0.182 µM); in assay [6], 0.12 µg/mL (≈ 0.182 µM); in [7], 8 µg/mL (≈ 12.2 µM); in [8], 0.5 µg/mL (≈ 0.76 µM); against E. coli ATCC 25922, 4 µg/mL (≈ 6.08 µM). The MIC in assay [9] turned out to be 16 µg/mL (≈ 24.3 µM); in assay [10], 8 µg/mL (≈ 12.2 µM); in assay [11], 0.12 µg/mL (≈ 0.182 µM); in assay [12], 0.12 µg/mL (≈ 0.182 µM); in assay [13] it was 2 µg/mL (≈ 3.04 µM).

For the origin of these results see USRE40086E1, “Method for treating bacterial infection with novel 7-substituted-9-substituted amino 6-demethyl-6-deoxytetracyclines” (Wyeth Holdings Corporation, priority 1991, dated 2008).
